Laboratory results from ChEMBL document CHEMBL1144514, “The design, synthesis, and biological evaluation of novel substituted purines as HIV-1 Tat-TAR inhibitors” (Bioorg Med Chem, 2007).

Experiments:
[1] = test system: Simian immunodeficiency virus; assay: Inhibition of SIV-induced cytopathogenicity in CEM174 cells; format: functional, organism-based
[2] = Selectivity index, ratio of EC50 for SIV infected CEM174 cells to TC50 for CEM174 cells; format: functional
293T = assay: Inhibition of Tat-mediated transactivation in human 293T cells assessed as CAT expression at 30 uM; format: cell-based; conditions: Human immunodeficiency virus 1
[3] = Cytotoxicity against CEM174 cells; format: cell-based; conditions: human, read-out: TC50 (the source's name)

Structure (SMILES) | EC50 [1] [µM] | Selectivity index [2] | inhibition (293T) [%] | CC50 [3] [µM]
CCN(CC)c1nc(C)c2[nH]c(SCC(=O)NCCNC(=N)N)[n+](CCCN(C)C)c2n1 | 7.2 | >13.9 | 50.2 | > 100
CCN(CC)c1nc(C)c2[nH]c(SCC(=O)NCCCNC(=N)N)[n+](CCCN(C)C)c2n1 | 3.2 | >31.25 | 48.8 | > 100
CCN(CC)c1nc(C)c2[nH]c(SCC(=O)NCCN)[n+](CCCN(C)C)c2n1 | 3.4 | >29.4 | 57.7 | > 100
CCN(CC)CC[n+]1c(SCC(=O)NCCCNC(=N)N)[nH]c2c(C)nc(N(CC)CC)nc21 | 4.7 | >21.3 | 36.2 | > 100
CCN(CC)c1nc(C)c2[nH]c(SCC(=O)NCCN)nc2n1 | 2 | >50 | 65.7 | > 100
CCN(CC)c1nc(C)c2[nH]c(SCC(=O)NCCNC(=N)N)nc2n1 | 4.2 | >23.8 | 57.1 | > 100

Now those with a lower EC50 [1], led by results:

EC50 [1] [µM] | Structure (SMILES) | Selectivity index [2] | inhibition (293T) [%] | CC50 [3] [µM]
1.4 | CCN(CC)CC[n+]1c(SCC(=O)NCCCN)[nH]c2c(C)nc(N(CC)CC)nc21 | >71.4 | 43.3 | > 100
1.3 | CCN(CC)CC[n+]1c(SCC(=O)NCCN)[nH]c2c(C)nc(N(CC)CC)nc21 | 40.2 | 43.1 | 52.2
0.7 | CCN(CC)c1nc(C)c2[nH]c(SCC(=O)NCCCNC(=N)N)nc2n1 | >142.9 | 57.1 | > 100
0.7 | CCN(CC)CC[n+]1c(SCC(=O)NCCNC(=N)N)[nH]c2c(C)nc(N(CC)CC)nc21 | >142.9 | 34.9 | > 100
0.5 | CCN(CC)c1nc(C)c2[nH]c(SCC(=O)NCCCN)nc2n1 | >200 | 58.4 | > 100
0.2 | CCN(CC)c1nc(C)c2[nH]c(SCC(=O)NCCCN)[n+](CCCN(C)C)c2n1 | >500 | 48.7 | > 100
0.0122 | Cc1cn([C@H]2C[C@H](N=[N+]=[N-])[C@@H](CO)O2)c(=O)[nH]c1=O [ZIDOVUDINE] |  |  | > 100
